Experimental data published in PubChem BioAssay (NCI).
Where “and” joins values, the source holds several entries; their conditions need not be identical. Equal values may be shown once.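 How tested: cells in 96-well plates exposed to compound for 48 hours at five concentrations. At the GI50, growth is halved. The concentration for full growth arrest is given as TGI.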

Columns and labels:
Experiment in all cases: inhibition of tumour cell growth, NCI panel, 48 h
[1] = test system: HT29 colon
[2] = test system: SF-539 CNS
[3] = test system: KM12 colon
[4] = test system: NCI-H522 lung
[5] = test system: SF-295 CNS
[6] = test system: SNB-19 CNS
[7] = test system: COLO 205 colon
[8] = test system: UO-31 renal
[9] = test system: NCI-H23 lung
[10] = test system: HOP-92 NSCLC

Structure (SMILES)	GI50 [1]	TGI [1]	GI50 [2]	TGI [2]	GI50 [3]	TGI [3]	GI50 [4]	TGI [4]	GI50 [5]	TGI [5]	GI50 [6]	TGI [6]	GI50 [7]	TGI [7]	GI50 [8]	TGI [8]	GI50 [9]	TGI [9]	GI50 [10]	TGI [10]
C[C@@H]1C[C@H](N)C[C@H](c2ccncc2NC(=O)c2ccc(F)c(-c3c(F)cccc3F)n2)C1	4.17 µM and 5.55 µM	18.7 µM and > 10 µM	11.3 µM and > 10 µM	23.5 µM and > 10 µM	12.3 µM and > 10 µM	27.7 µM and > 10 µM	13.2 µM and > 10 µM	28.6 µM and > 10 µM	12.6 µM and > 10 µM	25.8 µM and > 10 µM	15.6 µM and > 10 µM	30.3 µM and > 10 µM	4.38 µM and 3.84 µM	22.1 µM and > 10 µM	3.65 µM and 1.28 µM	18.6 µM and > 10 µM				
CSc1cc([C@@H]2C[C@H]2c2ccc(Cl)cc2)on1	18.6 µM	> 100 µM			14.5 µM	30.3 µM	6.91 µM	45.9 µM	34.1 µM	69.2 µM	27.4 µM	> 100 µM	23.9 µM	> 100 µM	21.6 µM	> 100 µM	3.98 µM	18.1 µM	7.97 µM	27.3 µM
CC1SC(c2ccccc2Cl)N(NC(=O)C(O)c2ccccc2)C1=O (stereo not given)	> 100 µM	> 100 µM	> 100 µM	> 100 µM	> 100 µM	> 100 µM	54.4 µM	> 100 µM	32.4 µM	> 100 µM	> 100 µM	> 100 µM			74.9 µM	> 100 µM			> 100 µM	> 100 µM
CC(C)(C)OC(=O)C1C(=O)NC(=O)CC1CC(OCc1ccccc1)C(OCc1ccccc1)C(COCc1ccccc1)OCc1ccccc1 (stereo not given)		> 100 µM and 23.5 µM	> 100 µM and 36.6 µM	> 100 µM	39 µM and 5.26 µM	> 100 µM and 27.2 µM				> 100 µM	77.1 µM and 35.6 µM	> 100 µM			11.1 µM and 4.48 µM	24.8 µM and 16.2 µM	80.1 µM and 30 µM	> 100 µM		> 100 µM and 68.1 µM
C=CCC1(C(=O)OC)CCC/C(=N\O)C1 (stereo not given)		> 10 µM		> 10 µM		> 10 µM		> 10 µM		> 10 µM		> 10 µM		> 10 µM				> 10 µM		> 10 µM
CCCCCCCCCCCCSC(=S)c1c(C)[nH]n(-c2ccccc2)c1=O		36.6 µM		33.9 µM						35.6 µM		> 50 µM		> 50 µM		38.9 µM		35.8 µM		> 50 µM
CC(C)(C)C(=O)N1C(C(=O)O)Cc2ccccc2[C@@H]1Cc1ccccc1 (stereo not given in full)		> 100 µM		> 100 µM		> 100 µM		> 100 µM		> 100 µM		> 100 µM		> 100 µM				> 100 µM		> 100 µM
COc1ccc(N2C(=O)C3CC(c4ccc(Br)cc4)c4c([nH]c5ccccc45)C3C2=O)cc1 (stereo not given)		44.5 µM		11.7 µM		> 100 µM				24.3 µM		10.5 µM		34.8 µM		27.1 µM		28.5 µM		29.3 µM
O=C1c2ccccc2C(=O)N1CCc1ncc(-c2ccccc2)[nH]1		> 100 µM		> 100 µM		> 100 µM		> 100 µM		> 100 µM		> 100 µM		> 100 µM		> 100 µM		> 100 µM		
c1ccc(SC(Sc2ccccc2)=C2CCC2)cc1				> 100 µM		> 100 µM		> 100 µM		> 100 µM		> 100 µM		> 100 µM		> 100 µM		> 100 µM		> 100 µM
CC1=C(C#N)C23C(=O)N(c4ccccc4)C(=O)C2=C(O)C=CC3(O)N1Cc1ccc(Cl)cc1Cl (stereo not given)	1.97 µM	4.84 µM	2.11 µM	4.9 µM	3.27 µM	12 µM			1.32 µM	5.64 µM	3.8 µM	14.9 µM	4.11 µM	14.4 µM	5.42 µM	19.6 µM	3.33 µM	15.9 µM	3.02 µM	13.3 µM
C=C(C)[C@@H]1CC[C@]2(CO)CC[C@]3(C)[C@H](CC[C@@H]4[C@@]5(C)CCCNC(C)(C)[C@@H]5CC[C@]43C)[C@@H]12			1.58 µM	3.01 µM	1.73 µM	3.24 µM			1.66 µM	3.13 µM	1.75 µM	3.2 µM	1.54 µM	3.24 µM	1.56 µM	2.99 µM	1.71 µM	3.39 µM	1.73 µM	3.33 µM
Nc1ncc(-c2ccc3ncnc(Nc4cccc(Cl)c4)c3c2)cn1	1.75 µM	> 100 µM	0.279 µM and 2.14 µM	> 100 µM	4.79 µM	> 100 µM	0.128 µM	4.95 µM	0.216 µM		0.387 µM and 2.28 µM	> 100 µM			0.452 µM	> 100 µM			0.00741 µM	0.0974 µM
O=C(CC1(O)C(=O)Nc2c(Cl)cc(Cl)cc21)c1ccccc1 (stereo not given)		> 100 µM		> 100 µM				> 100 µM		> 100 µM		> 100 µM		> 100 µM		> 100 µM		> 100 µM		> 100 µM
Nc1nc(=O)n(C2CCC(CO)O2)cc1F (stereo not given)		> 100 µM				> 100 µM		> 100 µM		> 100 µM		> 100 µM		> 100 µM		> 100 µM		> 100 µM		> 100 µM
NC(=S)N/N=C/c1ccc(OC(=O)COc2cc(Cl)c(Cl)cc2Cl)cn1	17.7 µM	> 100 µM	2.37 µM	10.3 µM	5.68 µM	> 100 µM	3.17 µM	67.5 µM			5.87 µM	> 100 µM	7.39 µM	> 100 µM	3.18 µM	> 100 µM	3.26 µM	> 100 µM	1.54 µM	26.6 µM
Cc1ccc(OCC2CO2)c(Br)c1 (stereo not given)		29.1 µM		29.9 µM		> 100 µM				63.7 µM		> 100 µM		32.3 µM		39.1 µM		76.7 µM		36.5 µM
